Reference: patent US20250034165A1, “COMPOUND CONTAINING CYCLOALKYL OR HALOALKYL” (CHIA TAI TIANQING PHARMACEUTICAL GROUP CO., LTD., priority 2021, published 2025)
Like-named read-outs stand apart in the source and are kept apart here.

Experiments:
[1] = test system: BAF3-EGFR (L858R/T790M/C797S) cells; assay: Inhibition of proliferation of BAF3-EGFR (L858R/T790M/C797S) cells, CCK-8; format: cell-based; details: 72 h, read-out: BAF3(EGFR T790M L858R C797S) cell inhibitory activity IC50
How it was run: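 BaF3 EGFR L858R/T790M/C797S cells seeded at 1.5×10^5 cells/mL in RPMI + 10% FBS, 37 °C, compound added after overnight, duplicates. Viability by CCK-8; % inhibition vs untreated and blank, IC50 by four-parameter fit.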

EGFR (WT) = EGFR (WT) (Homo sapiens (Human), UniProt P00533); assay: Inhibitory activity for EGFR (WT) kinase; format: biochemical; details: ATP 5 μM
Sequence of EGFR (WT) (P00533 25-1210): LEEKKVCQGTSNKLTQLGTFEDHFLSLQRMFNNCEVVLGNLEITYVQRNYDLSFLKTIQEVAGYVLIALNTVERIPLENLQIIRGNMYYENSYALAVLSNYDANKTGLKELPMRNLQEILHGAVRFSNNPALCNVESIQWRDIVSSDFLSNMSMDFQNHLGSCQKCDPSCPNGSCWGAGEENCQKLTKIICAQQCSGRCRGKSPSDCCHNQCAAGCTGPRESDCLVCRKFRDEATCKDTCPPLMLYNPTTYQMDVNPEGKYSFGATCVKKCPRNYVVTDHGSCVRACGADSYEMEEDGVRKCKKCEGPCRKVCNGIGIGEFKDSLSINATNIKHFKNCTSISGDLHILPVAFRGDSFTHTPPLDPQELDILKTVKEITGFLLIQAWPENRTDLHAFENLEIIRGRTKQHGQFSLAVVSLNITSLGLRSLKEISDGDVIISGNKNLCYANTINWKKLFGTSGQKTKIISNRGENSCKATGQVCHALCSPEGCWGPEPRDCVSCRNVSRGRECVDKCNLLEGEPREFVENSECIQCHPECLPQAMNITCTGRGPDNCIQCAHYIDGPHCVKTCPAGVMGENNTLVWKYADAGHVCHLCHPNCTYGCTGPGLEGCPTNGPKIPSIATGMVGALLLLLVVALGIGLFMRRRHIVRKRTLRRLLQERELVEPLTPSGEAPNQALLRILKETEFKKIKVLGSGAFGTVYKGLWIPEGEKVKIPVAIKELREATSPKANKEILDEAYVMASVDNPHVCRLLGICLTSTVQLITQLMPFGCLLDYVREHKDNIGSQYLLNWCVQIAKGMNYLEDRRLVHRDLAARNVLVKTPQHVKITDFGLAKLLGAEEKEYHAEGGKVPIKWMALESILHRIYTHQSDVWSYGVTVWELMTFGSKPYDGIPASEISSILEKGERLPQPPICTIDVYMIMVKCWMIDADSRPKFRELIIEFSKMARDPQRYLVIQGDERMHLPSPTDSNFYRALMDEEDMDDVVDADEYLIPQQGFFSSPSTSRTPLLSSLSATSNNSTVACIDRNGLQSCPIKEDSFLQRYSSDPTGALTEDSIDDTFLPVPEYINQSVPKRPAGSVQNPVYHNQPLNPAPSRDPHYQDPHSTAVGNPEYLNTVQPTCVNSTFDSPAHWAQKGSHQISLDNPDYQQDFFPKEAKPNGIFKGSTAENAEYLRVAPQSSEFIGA
Method: A 50 ng/μL EGFR (WT, Carna) stock solution was diluted with a kinase buffer (50 mM HEPES, 10 mM MgCl2, 2 mM DTT, 1 mM EGTA, 0.01% Tween 20), and 6 μL of 1.67× working solution at 0.005 ng/μL (final concentration: 0.003 ng/μL) was added to each well. Different compounds dissolved in DMSO were added to the wells using a nanoliter pipettor, resulting in the final concentrations of the compounds of 100 nM to 0.0244 nM (4-fold gradient for 7 concentrations in total), and blank control wells (without enzyme) and negative control wells (with enzyme, plus vehicle DMSO) were set, 2 replicate wells for each concentration. After enzyme was reacted with the compound or vehicle for 30 min, 5×ATP at 25 μM (final concentration: 5 μM, Sigma) prepared with a kinase buffer was mixed with 5× substrate at 0.5 μM (final concentration: 0.1 μM, ULight-poly GT, PerkinElmer) at a ratio of 1:1 (v:v), and the mixture was added to each well at 4 μL/well. After being sealed with a film, the plate was incubated at room temperature for 2 h, and then 5 μL of 4×EDTA at 40 mM (final concentration: 10 mM) was added to each well. After the plate was incubated for 5 min at room temperature, 5 μL of 4× detection reagent at 8 nM (final concentration: 2 nM, Eu-anti-phospho-tyrosine antibody, PerkinElmer) was added to each well. After being incubated at room temperature for 1 h, the plate was read using a PerkinElmer Envision multi-mode microplate reader (excitation: 320 nm, emission: 665 nm), and IC50 was calculated by four-parameter fitting.

EGFR (L858R/T790M/C797S) = EGFR (L858R/T790M/C797S) (Homo sapiens (Human), UniProt P00533, C797S/L858R/T790M); assay: Inhibitory activity for EGFR (L858R/T790M/C797S) kinase; format: biochemical; details: ATP 5 μM
Sequence of EGFR (L858R/T790M/C797S) (P00533 25-1210 T790M/C797S/L858R): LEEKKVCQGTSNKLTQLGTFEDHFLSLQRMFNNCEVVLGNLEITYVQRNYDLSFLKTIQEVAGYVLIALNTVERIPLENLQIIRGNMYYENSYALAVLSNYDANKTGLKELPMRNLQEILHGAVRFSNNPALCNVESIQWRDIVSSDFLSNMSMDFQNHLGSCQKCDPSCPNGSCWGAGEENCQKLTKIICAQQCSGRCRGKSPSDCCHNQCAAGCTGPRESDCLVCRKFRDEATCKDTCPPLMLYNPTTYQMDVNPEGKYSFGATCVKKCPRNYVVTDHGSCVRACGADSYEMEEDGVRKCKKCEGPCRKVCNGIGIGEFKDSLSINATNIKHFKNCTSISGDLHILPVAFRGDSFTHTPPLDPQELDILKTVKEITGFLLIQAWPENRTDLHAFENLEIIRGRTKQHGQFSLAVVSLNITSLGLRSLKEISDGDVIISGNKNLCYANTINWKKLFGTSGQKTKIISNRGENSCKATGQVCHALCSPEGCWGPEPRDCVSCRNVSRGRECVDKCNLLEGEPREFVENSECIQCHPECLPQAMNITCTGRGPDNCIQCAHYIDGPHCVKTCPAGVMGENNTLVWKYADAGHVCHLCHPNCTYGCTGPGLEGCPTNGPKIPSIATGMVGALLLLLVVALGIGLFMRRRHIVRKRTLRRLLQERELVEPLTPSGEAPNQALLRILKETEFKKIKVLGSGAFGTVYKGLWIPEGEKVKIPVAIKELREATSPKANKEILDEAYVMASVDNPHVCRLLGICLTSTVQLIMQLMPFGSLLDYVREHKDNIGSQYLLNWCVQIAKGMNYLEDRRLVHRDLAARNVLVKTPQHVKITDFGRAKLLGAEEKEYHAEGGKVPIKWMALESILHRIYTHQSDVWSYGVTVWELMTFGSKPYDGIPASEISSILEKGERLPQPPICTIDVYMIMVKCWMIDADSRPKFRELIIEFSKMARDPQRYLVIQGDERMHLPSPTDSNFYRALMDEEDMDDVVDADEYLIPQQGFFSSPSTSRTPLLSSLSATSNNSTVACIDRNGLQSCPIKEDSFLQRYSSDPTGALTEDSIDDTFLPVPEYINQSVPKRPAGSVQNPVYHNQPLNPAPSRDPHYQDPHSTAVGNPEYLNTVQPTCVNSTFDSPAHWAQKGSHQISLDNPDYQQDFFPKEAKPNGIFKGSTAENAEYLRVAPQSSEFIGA
Method: A 50 ng/μL EGFR (L858R/T790M/C797S, BPS) stock solution was diluted with a kinase buffer (50 mM HEPES, 10 mM MgCl2, 2 mM DTT, 1 mM EGTA, 0.01% Tween 20), and 6 μL of 1.67× working solution at 0.00167 ng/μL (final concentration: 0.001 ng/μL) was added to each well. Different compounds dissolved in DMSO were added to wells using a nanoliter pipettor, resulting in the final concentrations of the compounds of 10 nM to 0.0024 nM (4-fold gradient, 7 concentrations in total), and blank control wells (without enzyme) and negative control wells (with enzyme, plus vehicle DMSO) were set, 2 replicate wells for each concentration. After enzyme was reacted with the compound or vehicle for 30 min, 5×ATP at 25 μM (final concentration: 5 μM, Sigma) prepared with a kinase buffer was mixed with 5× substrate at 0.5 μM (final concentration: 0.1 μM, ULight-poly GT, PerkinElmer) at a ratio of 1:1 (v:v), and the mixture was added to each well at 4 μL/well. After being sealed with a film, the plate was incubated at room temperature for 2 h, and then 5 μL of 4×EDTA at 40 mM (final concentration: 10 mM) was added to each well. After the plate was incubated for 5 min at room temperature, 5 μL of 4× detection reagent at 8 nM (final concentration: 2 nM, Eu-anti-phospho-tyrosine antibody, PerkinElmer) was added to each well. After being incubated at room temperature for 1 h, the plate was read using a PerkinElmer Envision multi-mode microplate reader (excitation: 320 nm, emission: 665 nm), and IC50 was calculated by four-parameter fitting.

[2] = biological target: EGFR (d746-750 (d19)/T790M) (Homo sapiens (Human), UniProt P00533, DEL746-750/T790M); assay: Inhibitory activity for EGFR (d746-750 (d19)/T790M) kinase; format: biochemical; details: ATP 5 μM
Sequence of EGFR (d746-750 (d19)/T790M) (P00533 other isoform, or with tags, fused parts or gaps T790M/del 1-668/del 746-750 limits assumed): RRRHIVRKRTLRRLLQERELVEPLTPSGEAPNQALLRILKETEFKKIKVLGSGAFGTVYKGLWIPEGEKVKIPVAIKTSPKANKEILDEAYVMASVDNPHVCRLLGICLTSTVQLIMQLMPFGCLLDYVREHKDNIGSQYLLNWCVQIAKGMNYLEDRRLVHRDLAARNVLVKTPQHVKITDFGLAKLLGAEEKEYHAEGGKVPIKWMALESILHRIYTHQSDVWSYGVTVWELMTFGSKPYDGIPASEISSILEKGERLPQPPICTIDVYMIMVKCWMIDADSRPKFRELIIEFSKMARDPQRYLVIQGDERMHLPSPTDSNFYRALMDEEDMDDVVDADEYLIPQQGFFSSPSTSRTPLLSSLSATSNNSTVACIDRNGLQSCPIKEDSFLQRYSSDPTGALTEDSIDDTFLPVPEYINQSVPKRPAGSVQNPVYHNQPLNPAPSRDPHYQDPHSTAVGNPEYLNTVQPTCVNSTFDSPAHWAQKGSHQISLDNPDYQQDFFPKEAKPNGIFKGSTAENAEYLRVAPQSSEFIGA
How it was run: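 Recombinant EGFR d746-750/T790M (0.003 ng/μL final) preincubated 30 min with compound (10 to 0.0024 nM, 4-fold steps), then 5 μM ATP and 0.1 μM ULight-poly GT added for 2 h at room temperature. EDTA stop, Eu-anti-phosphotyrosine TR-FRET read (665 nm); IC50 by four-parameter fit.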

IC50 ([1]; Ba/F3 EGFR) [nM] | IC50 (EGFR (WT)) [nM] | IC50 (EGFR (L858R/T790M/C797S)) [nM] | IC50 [2] [nM] | IC50 [1] [nM] | Compound
– | 8 | 0.081 | 0.039 | – | Cc1cc2cc(n1)-c1cnn(C)c1OC[C@H](C1CC1)CCCn1c(nc3cc(NC4COC4)ccc31)NC2=O [Example 60]
– | 0.61 | 0.027 | 0.012 | < 5 | Cc1cc2cc(n1)-c1cnn(C)c1OCCC[C@@H](C1CC1)CN1/C(=N/C2=O)Nc2cc(N[C@H](C)C3COC3)ccc21 [Example 39]
– | 5.9 | 0.085 | 0.04 | – | Cc1cc2cc(n1)-c1cnn(C)c1OC[C@H](C1CC1)CCCn1c(nc3ccc(NC4COC4)cc31)NC2=O [Example 59]

Continued, compound first:

Compound | IC50 ([1]; Ba/F3 EGFR) [nM] | IC50 (EGFR (WT)) [nM] | IC50 (EGFR (L858R/T790M/C797S)) [nM] | IC50 [2] [nM] | IC50 [1] [nM]
Cc1cc2cc(n1)-c1cnn(C)c1OCCC[C@@H](C1CC1)CN1/C(=N/C2=O)Nc2cc(NC3(C(F)(F)F)COC3)ccc21 [Example 88] | < 5 | 6 | 0.177 | 0.044 | –
Cc1cc2cc(n1)-c1cnn(C)c1OCCC[C@@H](C1CC1)CN1/C(=N/C2=O)Nc2cc(N[C@H]3CC[C@H](N(C)C)CC3)ccc21 [Example 25] | – | 0.049 | 0.014 | 0.011 | < 5
Cc1cc2cc(n1)-c1cnn(C)c1OCCC[C@@H](C1CC1)CN1/C(=N/C2=O)Nc2ccc(NCCN(C)C)cc21 [Example 28] | < 5 | – | – | 0.0072 | –
Cc1cc2cc(n1)-c1cnn(C)c1OCCC[C@@H](C1CC1)CN1/C(=N/C2=O)Nc2cc(NC3(C)COC3)ccc21 [Example 29] | < 5 | – | – | 0.0089 | –
C[C@H](Nc1ccc2c(c1)N/C1=N\C(=O)c3cc(F)nc(c3)-c3cnn(C)c3OCCC[C@@H](C3CC3)CN12)C(F)(F)F [Example 9] | – | 0.56 | 0.5 | 0.28 | –
Cc1cc2cc(n1)-c1cnn(C)c1OCCC[C@@H](C1CC1)CN1/C(=N/C2=O)Nc2ccc(C=CCCN(C)C)cc21 [Example 24] | – | 1.1 | 0.02 | 0.016 | < 5
Cc1cc2cc(n1)-c1cnn(C)c1OCCC[C@@H](C1CC1)CN1/C(=N/C2=O)Nc2cc(N[C@H]3CC[C@@H](N(C)C)CC3)ccc21 [Example 26] | – | 0.24 | 0.017 | 0.011 | < 5
